Measurements taken from ChEMBL document CHEMBL6127102 (Bioorg Med Chem, 2024).
pIC50: −log10 of the molar value. Blank lines part the entries; values can stand above or below the molecule they belong to. Active and inactive are the calls of the source. No cut-off for these calls is given here.

How the values were obtained:
MDA-MB-231 [1] = test: Antitumor activity against human MDA-MB-231 cells harboring wild-type BRCA incubated for 72 hrs by MTT assay; type: functional, cell-based; settings: MDA-MB-231, 72 h
MDA-MB-468 = test: Antitumor activity against human MDA-MB-468 cells harboring wild-type BRCA incubated for 72 hrs by MTT assay; type: functional, cell-based; settings: MDA-MB-468, 72 h
HCC1937 = test: Antitumor activity against BRCA 1-deficient human HCC1937 cells incubated for 72 hrs by MTT assay; type: functional, cell-based; settings: HCC1937, 72 h
MDA-MB-436 = test: Antitumor activity against BRCA 1-deficient human MDA-MB-436 cells incubated for 72 hrs by MTT assay; type: functional, cell-based; settings: MDA-MB-436, 72 h
[2] = Cytotoxicity against human MCF-10A cells incubated for 72 hrs by MTT assay; type: toxicity, cell-based
MDA-MB-231 [3] = test: Induction of apoptosis in human MDA-MB-231 cells as increase in red fluorescence at 5 uM incubated for 24 hrs by Calcein AM/PI staining based confocal microscopy; type: functional, cell-based
MDA-MB-231 [4] = test: Effect on RAF expression in human MDA-MB-231 cells at 5 uM incubated for 24 hrs by Western blot analysis; type: functional, cell-based
MDA-MB-231 [5] = test: Effect on CRAF expression in human MDA-MB-231 cells at 5 uM incubated for 24 hrs by Western blot analysis; type: functional, cell-based
MDA-MB-231 [6] = test: Effect on MEK phosphorylation in human MDA-MB-231 cells at 5 uM incubated for 24 hrs by Western blot analysis; type: functional, cell-based
MDA-MB-231 [7] = test: Effect on ERK1/2 phosphorylation in human MDA-MB-231 cells at 5 uM incubated for 24 hrs by Western blot analysis; type: functional, cell-based
MDA-MB-231 [8] = test: Effect on total MEK in human MDA-MB-231 cells at 5 uM incubated for 24 hrs by Western blot analysis; type: functional, cell-based
MDA-MB-231 [9] = test: Effect on total ERK1/2 in human MDA-MB-231 cells at 5 uM incubated for 24 hrs by Western blot analysis; type: functional, cell-based
MDA-MB-231 [10] = test: Induction of DNA damage in human MDA-MB-231 cells assessed as increase in olive tail moments at 5 uM incubated for 24 hrs by Comet assay; type: functional, cell-based
MDA-MB-231 [11] = test: Induction of ROS generation in human MDA-MB-231 cells at 5 uM incubated for 24 hrs by DCFH-DA staining based flow cytometric analysis; type: functional, cell-based
MDA-MB-231 [12] = test: Induction of DNA damage in human MDA-MB-231 cells assessed as increase in gamma-H2AX level at 5 uM incubated for 24 hrs by immunofluorescence based analysis; type: functional, cell-based
MDA-MB-231 [13] = test: Induction of apoptosis in human MDA-MB-231 cells at 5 uM incubated for 24 hrs by Annexin V-FITC/PI staining based flow cytometry relative to control; type: functional
[14] = Induction of depolarization of mitochondrial membrane potential in human MDA-MB-231 cells at 5 uM incubated for 24 hrs by JC-1 staining based flow cytometry relative to control; type: functional
MDA-MB-231 [15] = test: Anti-migration activity in human MDA-MB-231 cells at 1 uM incubated for 24 hrs by wound healing assay; type: functional, cell-based
MDA-MB-231 [16] = test: […] activity in human MDA-MB-231 cells at 1 uM incubated for 24 hrs by wound healing assay; type: functional, cell-based
MDA-MB-231 [17] = test: Induction of apoptosis in human MDA-MB-231 cells assessed as increase in Bax level at 5 uM incubated for 24 hrs by Western blot analysis; type: functional, cell-based
MDA-MB-231 [18] = test: Induction of apoptosis in human MDA-MB-231 cells assessed as decrease in Bcl-2 level at 5 uM incubated for 24 hrs by Western blot analysis; type: functional, cell-based
MDA-MB-231 [19] = test: Induction of apoptosis in human MDA-MB-231 cells assessed as increase in cleaved PARP level at 5 uM incubated for 24 hrs by Western blot analysis; type: functional, cell-based
MDA-MB-231 [20] = test: Induction of apoptosis in human MDA-MB-231 cells assessed as increase in cleaved caspase-3 level at 5 uM incubated for 24 hrs by Western blot analysis; type: functional, cell-based
MDA-MB-231 [21] = test: Induction of apoptosis in human MDA-MB-231 cells assessed as increase in cleaved caspase-9 level at 5 uM incubated for 24 hrs by Western blot analysis; type: functional, cell-based
MDA-MB-231 [22] = test: Antitumor activity against human MDA-MB-231 cells xenografted in BALB/c nude mouse at 23 mg/kg, ip administered on every 2 days for 28 days relative to control; type: functional; settings: MDA-MB-231, 672 h, time 28 day, read-out: TGI
MDA-MB-231 [23] = test: Antitumor activity against human MDA-MB-231 cells xenografted in BALB/c nude mouse at 23 mg/kg, ip administered on every 2 days for 28 days in presence of Olaparib relative to control; type: functional; settings: MDA-MB-231, 672 h, time 28 day, read-out: TGI
[24] = Toxicity in BALB/c nude mouse xenografted with human MDA-MB-231 cells assessed as body weight change at 23 mg/kg, ip administered on every 2 days for 28 days; type: organism-based; settings: in vivo, 672 h, time 28 day
[25] = Toxicity in BALB/c nude mouse xenografted with human MDA-MB-231 cells assessed as body weight change at 23 mg/kg, ip administered on every 2 days for 28 days in presence of Olaparib; type: organism-based; settings: in vivo, 672 h, time 28 day
[26] = Toxicity in BALB/c nude mouse xenografted with human MDA-MB-231 cells assessed as drug tolerance at 23 mg/kg, ip administered on every 2 days for 28 days; type: organism-based; settings: in vivo, 672 h, time 28 day
[27] = Toxicity in BALB/c nude mouse xenografted with human MDA-MB-231 cells assessed as drug tolerance at 23 mg/kg, ip administered on every 2 days for 28 days in presence of Olaparib; type: organism-based; settings: in vivo, 672 h, time 28 day
MDA-MB-231 [28] = test: Antitumor activity against human MDA-MB-231 cells xenografted in BALB/c nude mouse assessed as increase in apoptotic cells at 23 mg/kg, ip administered on every 2 days for 28 days by H and E staining based analysis; type: functional, organism-based; settings: time 28.0 day
MDA-MB-231 [29] = test: Antitumor activity against human MDA-MB-231 cells xenografted in BALB/c nude mouse assessed as increase in necrotic cells at 23 mg/kg, ip administered on every 2 days for 28 days by H and E staining based analysis; type: functional, organism-based; settings: time 28.0 day
MDA-MB-231 [30] = test: Antitumor activity against human MDA-MB-231 cells xenografted in BALB/c nude mouse assessed as decrease in Ki-67 expression at 23 mg/kg, ip administered on every 2 days for 28 days by H and E staining based analysis; type: functional, organism-based; settings: time 28.0 day
MDA-MB-231 [31] = test: Antitumor activity against human MDA-MB-231 cells xenografted in BALB/c nude mouse assessed as increase in apoptotic cells at 23 mg/kg, ip administered on every 2 days for 28 days in presence of Olaparib by H and E staining based analysis; type: functional, organism-based; settings: time 28.0 day
MDA-MB-231 [32] = test: Antitumor activity against human MDA-MB-231 cells xenografted in BALB/c nude mouse assessed as increase in necrotic cells at 23 mg/kg, ip administered on every 2 days for 28 days in presence of Olaparib by H and E staining based analysis; type: functional, organism-based; settings: time 28.0 day
MDA-MB-231 [33] = test: Antitumor activity against human MDA-MB-231 cells xenografted in BALB/c nude mouse assessed as decrease in Ki-67 expression at 23 mg/kg, ip administered on every 2 days for 28 days in presence of Olaparib by H and E staining based analysis; type: functional, organism-based; settings: time 28.0 day

Compound: COc1cc(OC)c(/C=C/S(=O)(=O)Cc2ccc(OC)c(NC(=O)CCCCC(=O)O)c2)c(OC)c1
- pIC50 (MDA-MB-231 [1]): 5.16
- pIC50 (MDA-MB-468): 5.16
- pIC50 (HCC1937): 5.28
- pIC50 (MDA-MB-436): 5.15
- IC50 at 72 h [2]: > 40 µM

Compound: COc1cc(OC)c(/C=C/S(=O)(=O)Cc2ccc(OC)c(NCC(=O)O)c2)c(OC)c1 [RIGOSERTIB]
- pIC50 (MDA-MB-231 [1]): 6.64
- pIC50 (MDA-MB-468): 6.35
- pIC50 (HCC1937): 6.48
- pIC50 (MDA-MB-436): 6.60
- IC50 at 72 h [2]: 18.4 µM

Compound: COc1cc(OC)c(/C=C/S(=O)(=O)Cc2ccc(OC)c(NC(=O)CCCC(=O)N3CCN(C(=O)c4cc(Cc5n[nH]c(=O)c6ccccc56)ccc4F)CC3)c2)c(OC)c1
- pIC50 (MDA-MB-231 [1]): 5.56
- pIC50 (MDA-MB-468): 5.44
- pIC50 (HCC1937): 5.70
- pIC50 (MDA-MB-436): 5.71
- IC50 at 72 h [2]: > 40 µM

Further molecules by rising pIC50 (MDA-MB-231 [1]), results first:

- pIC50 (MDA-MB-231 [1]): 5.34
- pIC50 (MDA-MB-468): 5.31
- pIC50 (HCC1937): 5.43
- pIC50 (MDA-MB-436): 5.42
Compound: COc1cc(OC)c(/C=C/S(=O)(=O)Cc2ccc(OC)c(NC(=O)CCCCC(=O)N3CCN(C(=O)c4cc(Cc5n[nH]c(=O)c6ccccc56)ccc4F)CC3)c2)c(OC)c1
- IC50 at 72 h [2]: > 40 µM

- pIC50 (MDA-MB-231 [1]): 5.57
- pIC50 (MDA-MB-468): 5.34
- pIC50 (HCC1937): 5.51
- pIC50 (MDA-MB-436): 5.66
Compound: COc1cc(OC)c(/C=C/S(=O)(=O)Cc2ccc(OC)c(NCCCCCC(=O)N3CCN(C(=O)c4cc(Cc5n[nH]c(=O)c6ccccc56)ccc4F)CC3)c2)c(OC)c1
- IC50 at 72 h [2]: > 40 µM

- pIC50 (MDA-MB-231 [1]): 5.64
- pIC50 (MDA-MB-468): 5.27
- pIC50 (HCC1937): 5.32
- pIC50 (MDA-MB-436): 5.49
Compound: COc1cc(OC)c(/C=C/S(=O)(=O)Cc2ccc(OC)c(NCCCCCC(=O)O)c2)c(OC)c1
- IC50 at 72 h [2]: > 40 µM

- pIC50 (MDA-MB-231 [1]): 5.73
- pIC50 (MDA-MB-468): 5.63
- pIC50 (HCC1937): 5.97
- pIC50 (MDA-MB-436): 5.68
Compound: COc1cc(OC)c(/C=C/S(=O)(=O)Cc2ccc(OC)c(NCCCC(=O)O)c2)c(OC)c1
- IC50 at 72 h [2]: 30.6 µM
- Activity (MDA-MB-231 [3]): Active
- Activity (MDA-MB-231 [4]): inactive
- Activity (MDA-MB-231 [5]): Active
- Activity (MDA-MB-231 [6]): Active
- Activity (MDA-MB-231 [7]): Active
- Activity (MDA-MB-231 [8]): inactive
- Activity (MDA-MB-231 [9]): inactive
- Activity (MDA-MB-231 [10]): Active
- Activity (MDA-MB-231 [11]): Active
- Activity (MDA-MB-231 [12]): Active
- Activity (MDA-MB-231 [13]): 31.1%
- Activity [14]: 31.56%
- Activity (MDA-MB-231 [15]): Active
- Activity (MDA-MB-231 [16]): Active
- Activity (MDA-MB-231 [17]): Active
- Activity (MDA-MB-231 [18]): Active
- Activity (MDA-MB-231 [19]): Active
- Activity (MDA-MB-231 [20]): Active
- Activity (MDA-MB-231 [21]): Active
- inhibition in vivo at 23 mg/kg (MDA-MB-231 [22]): 51.8%
- inhibition in vivo at 23 mg/kg (MDA-MB-231 [23]): 56.7%
- Activity [24]: Non-Toxic
- Activity [25]: Non-Toxic
- Activity [26]: Non-Toxic
- Activity [27]: Non-Toxic
- Activity (MDA-MB-231 [28]): Active
- Activity (MDA-MB-231 [29]): Active
- Activity (MDA-MB-231 [30]): Active
- Activity (MDA-MB-231 [31]): Active
- Activity (MDA-MB-231 [32]): Active
- Activity (MDA-MB-231 [33]): Active
